Drawing on patent US11673883B2, “Heterocyclic compounds as immunomodulators” (Incyte Corporation, priority 2016, dated 2023), this text covers IC50 for 34 compounds.

A word on the IC50: it is the concentration that gives 50% inhibition.

Some results are limits rather than exact numbers.

Sequence of PD-1/PD-L1 protein/protein interaction (Q9NZQ7 19-238): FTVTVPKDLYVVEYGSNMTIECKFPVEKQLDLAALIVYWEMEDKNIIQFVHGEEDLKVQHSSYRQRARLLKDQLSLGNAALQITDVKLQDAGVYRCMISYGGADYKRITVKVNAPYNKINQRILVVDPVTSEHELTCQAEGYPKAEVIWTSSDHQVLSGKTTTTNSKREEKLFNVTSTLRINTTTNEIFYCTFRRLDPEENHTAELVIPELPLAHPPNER

This experiment concerns the target PD-1/PD-L1 protein/protein interaction (Homo sapiens (Human), UniProt Q9NZQ7). Put plainly: PD-1/PD-L1 Homogeneous Time-Resolved Fluorescence (HTRF) Binding Assay. Conditions: recombinant human PD-L1 (19-238) His-tag, human PD-1 (25-167) Fc tag; 25° C., PBS pH 7.4. On the procedure: Example A. PD-1/PD-L1 Homogeneous Time-Resolved Fluorescence (HTRF) Binding Assay
The assays were conducted in a standard black 384-well polystyrene plate with a final volume of 20 μL. Inhibitors were first serially diluted in DMSO and then added to the plate wells before the addition of other reaction components. The final concentration of DMSO in the assay was 1%. The assays were carried out at 25° C. in the PBS buffer (pH 7.4) with 0.05% Tween-20 and 0.1% BSA. Recombinant human PD-L1 protein (19-238) with a His-tag at the C-terminus was purchased from AcroBiosystems (PD1-H5229). Recombinant human PD-1 protein (25-167) with Fc tag at the C-terminus was also purchased from AcroBiosystems (PD1-H5257). PD-L1 and PD-1 proteins were diluted in the assay buffer and […] was added to the plate well. Plates were centrifuged and proteins were preincubated with inhibitors for 40 minutes. The incubation was followed by the addition of 10 μL of HTRF detection buffer supplemented with Europium cryptate-labeled anti-human IgG (PerkinElmer-AD0212) specific for Fc and anti-His antibody conjugated to SureLight®-Allophycocyanin (APC, PerkinElmer-AD0059H). After centrifugation, the plate was incubated at 25° C. for 60 min. before reading on a PHERAstar FS plate reader (665 nm/620 nm ratio). Final concentrations in the assay were […], 10 nM PD-L1, 1 nM europium anti-human IgG and 20 nM anti-His-Allophycocyanin. IC50 determination was performed by fitting the curve of percent control activity versus the log of the inhibitor concentration using the GraphPad Prism 5.0 software.
As to `Cn1cc(CCNC2CCN(c3cccc(-c4ccc5c(c4)OCCO5)c3C#N)CC2)cn1` [Example 5, 2-(2,3-dihydrobenzo[b][1,4]dioxin-6-yl)-6-(4-(2-(1-methyl-1H-pyrazol-4-yl)ethylamino)piperidin-1-yl)benzonitrile], the 50% inhibitory concentration (IC50) was no more than 100 nM. Take `N#Cc1c(-c2ccc3c(c2)OCCO3)cccc1N1CCC(N[C@@H]2CCCC[C@H]2CO)CC1` (relative stereo) [Example 12, 2-(2,3-dihydrobenzo[b][1,4]dioxin-6-yl)-6-(4-(trans-2-(hydroxymethyl)cyclohexylamino)piperidin-1-yl)benzonitrile]: the IC50 was no more than 100 nM.

Regarding `Cc1c(-c2ccccc2)cccc1N1CCC(NCC2(CO)CC2)CC1` [Example 26, (1-((1-(2-methylbiphenyl-3-yl)piperidin-4-ylamino)methyl)cyclopropyl)methanol], the 50% inhibitory concentration (IC50) was no more than 100 nM. To `Cc1c(-c2ccccc2)cccc1N1CCC(NC2CCOC2)CC1` (racemic) [Example 42, 1-(2-methylbiphenyl-3-yl)-N-(tetrahydrofuran-3-yl)piperidin-4-amine] belongs no more than 100 nM; to `Cc1c(-c2ccccc2)cccc1N1CCC(N[C@H]2CC[C@@H](O)CC2)CC1` [Example 33, cis-4-(1-(2-methylbiphenyl-3-yl)piperidin-4-ylamino)cyclohexanol], no more than 100 nM; to `N#Cc1c(-c2ccc3c(c2)OCCO3)cccc1N1CCC(N[C@H]2C[C@H](CO)C2)CC1` [Example 23, 2-(2,3-dihvdrobenzo[b][1,4]dioxin-6-yl)-6-(4-(trans-3-(hydroxymethyl)cyclobutyl-amino)piperidin-1-yl)benzonitrile], no more than 100 nM. To `Cc1c(-c2ccccc2)cccc1N1CCC(NC2CCCC2)CC1` [Example 37, N-cyclopentyl-1-(2-methylbiphenyl-3-yl)piperidin-4-amine] belongs no more than 100 nM; to `Cc1c(-c2ccccc2)cccc1N1CCC(NCCc2cnn(C)c2)CC1` [Example 31, N-(2-(1-methyl-1H-pyrazol-4-yl)ethyl)-1-(2-methylbiphenyl-3-yl)piperidin-4-amine], no more than 100 nM; to `Cc1c(-c2ccccc2)cccc1N1CCC(NC2CC(C(=O)O)C2)CC1` (stereo not shown) [Example 45, 3-(1-(2-methylbiphenyl-3-yl)piperidin-4-ylamino)cyclobutane-carboxylic acid], no more than 100 nM. To `Cc1c(-c2ccccc2)cccc1N1CCC(NC2CCC(C#N)CC2)CC1` (single isomer, unassigned) [40 (peak 2), 4-(1-(2-methylbiphenyl-3-yl)piperidin-4-ylamino)cyclohexane carbonitrile] belongs no more than 100 nM; to `N#Cc1c(C2CCCCC2)cccc1N1CCC(N2CCCC2)CC1` [Example 51, 2-cyclohexyl-6-(4-(pyrrolidin-1-yl)piperidin-1-yl)benzonitrile], 100 to 500 nM; to `N#Cc1c(-c2ccc3c(c2)OCCO3)cccc1N1CCC(NC2CC3(CCC3)C2)CC1` [Example 10, 2-(2,3-dihydrobenzo[b][1,4]dioxin-6-yl)-6-(4-(spiro[3.3]heptan-2-ylamino)piperidin-l-yl)benzonitrile], no more than 100 nM. For the compound `CO[C@H]1C[C@@H](NC2CCN(c3cccc(-c4ccc5c(c4)OCCO5)c3C#N)CC2)C1` [Example 14, 2-(2,3-dihydrobenzo[b][1,4]dioxin-6-yl)-6-(4-(cis-3-methoxycyclobutylamino)piperidin-1-yl)benzonitrile], the IC50 was no more than 100 nM. Next, `N#Cc1c(-c2ccc3c(c2)OCCO3)cccc1N1CCC(NCC2(CO)CC2)CC1` [Example 4, 2-(2,3-dihydrobenzo[b][1,4]dioxin-6-yl)-6-(4-((l-(hydroxymethyl)cyclopropyl)methylamino)piperidin-1-yl)benzonitrile]: no more than 100 nM; `CO[C@H]1C[C@H](NC2CCN(c3cccc(-c4ccc5c(c4)OCCO5)c3C#N)CC2)C1` [Example 13, 2-(2,3-dihydrobenzo[b][1,4]dioxin-6-yl)-6-(4-(trans-3-methoxycyclobutylamino)piperidin-1-yl)benzonitrile]: no more than 100 nM. For `N#Cc1c(-c2cccc(F)c2)cccc1N1CCC(N2CCCC2)CC1` [Example 49, 3′-fluoro-3-(4-(pyrrolidin-1-yl)piperidin-1-yl)biphenyl-2-carbonitrile], the IC50 is no more than 100 nM. To `Cc1c(-c2ccccc2)cccc1N1CCC(N2CCCC2)CC1` [Example 32, 1-(2-methylbiphenyl-3-yl)-4-(pyrrolidin-1-yl)piperidine] belongs no more than 100 nM; to `Cc1c(-c2ccccc2)cccc1N1CCC(NC2CCCC(C(=O)O)C2)CC1` (single isomer, unassigned) [46 (peak 1), 3-(1-(2-methylbiphenyl-3-yl)piperidin-4-ylamino)cyclohexane carboxylic acid], no more than 100 nM. With `COCC(C)NC1CCN(c2cccc(-c3ccccc3)c2C)CC1` (racemic) [Example 44, N-(1-methoxypropan-2-yl)-1-(2-methylbiphenyl-3-yl)piperidin-4-amine], the concentration for half-maximal inhibition (IC50) is no more than 100 nM. As for `Cc1c(-c2ccccc2)cccc1N1CCC(NC2CC(CO)C2)CC1` (stereo not shown) [Example 43, (3-(1-(2-methylbiphenyl-3-yl)piperidin-4-ylamino)cyclobutyl) methanol], the IC50 is no more than 100 nM. Next, `N#Cc1c(C2=CCCCC2)cccc1N1CCC(N2CCCC2)CC1` [Example 50, 2-cyclohexenyl-6-(4-(pyrrolidin-1-yl)piperidin-1-yl)benzonitrile]: no more than 100 nM.

As for `Cc1c(-c2ccccc2)cccc1N1CCC(NC2CCC(C(=O)O)CC2)CC1` (single isomer, unassigned) [41 (peak 2), 4-(1-(2-methylbiphenyl-3-yl)piperidin-4-ylamino)cyclohexane-carboxylic acid], the IC50 is no more than 100 nM. To `Cc1c(-c2ccccc2)cccc1N1CCC(N[C@H]2CC[C@H](O)CC2)CC1` [Example 30, trans-4-(1-(2-methylbiphenyl-3-yl)piperidin-4-ylamino)cyclohexanol] belongs no more than 100 nM; to `Cc1c(-c2ccccc2)cccc1N1CCC(NC2CCC(C(=O)O)CC2)CC1` (single isomer, unassigned) [41 (peak 1), 4-(1-(2-methylbiphenyl-3-yl)piperidin-4-ylamino)cyclohexane-carboxylic acid], no more than 100 nM.

For the compound `Cc1c(-c2ccccc2)cccc1N1CCC(NC2CC2)CC1` [Example 36, N-cyclopropyl-1-(2-methylbiphenyl-3-yl)piperidin-4-amine], the half-maximal inhibitory concentration (IC50) is no more than 100 nM. In the case of `CC1(NC2CCN(c3cccc(-c4ccc5c(c4)OCCO5)c3C#N)CC2)CC1` [Example 22, 2-(2,3-dihydrobenzo[b][1,4]dioxin-6-yl)-6-(4-(1-methylcyclopropylamino)piperidin-1-yl)benzonitrile], the IC50 is no more than 100 nM. Consider `CC[C@H](CO)NC1CCN(c2cccc(-c3ccccc3)c2C)CC1` [Example 35, (R)-2-(1-(2-methylbiphenyl-3-yl)piperidin-4-ylamino)butan-l-ol], for which the IC50 was no more than 100 nM.

As for `Cc1c(-c2ccccc2)cccc1N1CCC(NC2CCC(C(=O)O)(c3ccc(Cl)cc3)CC2)CC1` (single isomer, unassigned) [47 (peak 1), 1-(4-chlorophenyl)-4-(1-(2-methylbiphenyl-3-yl)piperidin-4-ylamino)cyclohexane carboxylic acid], the IC50 is no more than 100 nM. Next, `N#Cc1c(-c2ccc3c(c2)OCCO3)cccc1N1CCC(NC2CCOCC2)CC1` [Example 7, 2-(2,3-dihydrobenzo[b][1,4]dioxin-6-yl)-6-(4-(tetrahydro-2H-pyran-4-ylamino)piperidin-1-yl)benzonitrile]: no more than 100 nM; `N#Cc1c(-c2ccc3c(c2)OCCO3)cccc1N1CCC(NC2CC2)CC1` [Example 2, 2-(4-(cyclopropylamino)piperidin-1-yl)-6-(2,3-dihydrobenzo[b][1,4]dioxin-6-yl)benzonitrile]: no more than 100 nM. With `Cc1c(-c2ccccc2)cccc1N1CCC(NC2CCC(CC#N)CC2)CC1` (stereo not shown) [Example 39, 2-(4-(1-(2-methylbiphenyl-3-yl)piperidin-4-ylamino)cyclohexyl) acetonitrile], the IC50 was no more than 100 nM. Next, `COc1ccc(C2(CNC3CCN(c4cccc(-c5ccc6c(c5)OCCO6)c4C#N)CC3)CCOCC2)cc1` [Example 11, 2-(2,3-dihydrobenzo[b][1,4]dioxin-6-yl)-6-(4-((4-(4-methoxyphenyl)tetrahydro-2H-pyran-4-yl)methylamino)piperidin-1-yl)benzonitrile]: no more than 100 nM; `Cc1c(-c2ccccc2)cccc1N1CCC(NC2CCC(C(=O)O)(c3ccc(Cl)cc3)CC2)CC1` (single isomer, unassigned) [47 (peak 2), 1-(4-chlorophenyl)-4-(1-(2-methylbiphenyl-3-yl)piperidin-4-ylamino)cyclohexane-carboxylic acid]: no more than 100 nM.

For the compound `N#Cc1c(-c2ccc3c(c2)OCCO3)cccc1N1CCC(N[C@H]2CC[C@H](O)CC2)CC1` [Example 24, 2-(2,3-dihydrobenzo[b][1,4]dioxin-6-yl)-6-(4-(trans-4-hydroxycyclohexylamino)piperidin-1-yl)benzonitrile], the IC50 is no more than 100 nM.
